# US10556005B2 (priority 2011, dated 2020)
# Key:
# [1] = system: HA antigen of influenza virus (strain: A/Solomon); design: species or system BALB/c mice; settings: mouse, in vivo, sc
# [2] = Observation of administered mice for abnormality / induration at topical area; assay type: in vivo; settings: mice administered with citrulline; compared with induration seen where Alum is administered
smiles,measurement,setting,value
"NC(=O)NCCCC(N)C(=O)O (centres unmarked) [citrulline, 2-amino-5-(carbamoylamino)-pentanoic acid]",adjuvant effect compared with Alum adjuvant (in words),[1],same extent as that of Alum adjuvant
same,abnormality / induration in mice administered,[2],neither abnormality nor induration
